Experimental data published in patent US11806344B2, “Pharmaceutical composition comprising mineralocorticoid receptor antagonist and use thereof” (priority 2016, dated 2023).
Like-named read-outs stand apart in the source and are kept apart here.

What was measured:
[1] = Absorption of Compound I D90 5 μm suspension in Beagle dogs (Example 3-2); format: in vivo; conditions: intragastric single dose 0.5 mg/kg, suspension in 0.5% MC
Description: Sample to test: Compound I having D90 of 5 μm was suspended in 0.5% MC immediately before tests, to prepare 0.25 mg/mL suspension.
Animals: Three Beagle Dogs.
(1) All animals fasted for 12 h or longer before drug administration, and food was supplied 4 h after drug administration, with ad libitum access to water all the time. […] The collected blood was stored in a dry tube with heparin (normal saline containing 0.1% heparin sodium). (2) Plasma preparation: The whole blood samples collected in step (1) were subject to centrifugation at a low speed (8000 r/min, 6 min, 4° C.) to separate the plasma (the whole blood was stored in a mobile freezer at about 0 to 4° C., and plasma had to be separated within 30 minutes after the blood collection), and the plasma was kept in dark in a freezer at −70° C. (or lower) for future analysis.

[2] = Absorption of Compound I of different particle sizes/formulations in male SD rats (Example 3-1); format: in vivo; conditions: intragastric single dose 1.0 mg/kg; for AUCINF: 1 mg/kg; for BA %: absolute bioavailability vs IV 2.0 mg/kg
Description: Compound I with different formulations and/or different D90 values was compared for absorptions in male SD rats.
Samples to test: Compound I was prepared by the method as described in Example 1 of WO2014094664A1, and then pulverized to provide Compound I samples having D90 of 538 nm, 3.8 μm, 21.7 μm, 41.5 μm and 71.6 μm, respectively; immediately before the tests, these samples were suspended in 0.5% MC to obtain 1 mg/mL suspensions.
Solutions: 5% DMSO+95% (solution containing 6% HP-β-CD)
Solid dispersions: Compound I: Polyvinylpyrrolidone K30=1:8 (w/w)
The formulation for intravenous injection was a solution where Compound I was dissolved in 5% DMSO+95% (6% HP-β-CD solution), and SD rats were administered at a dose of 2 mg/kg.

[3] = tested on: patients with diabetic nephrophthy; conditions: cited from earlier work
[4] = rat, in vivo, po, 1 mg/kg
Description: Blood collection: The animals were fixed and had their tails warmed in a water bath 10 min prior to blood collection; about 100 μL of blood was collected through the tail vein for each animal and put into an anticoagulation tube containing hepatin; the blood samples were subject to centrifugation at 8000 rpm for 6 min at 4° C. to obtain plasma samples, which had to be obtained within 30 minutes after blood was collected; the plasma samples were stored in a freezer at −80° C. for future tests.
Sample analysis: 50 μL of each plasma sample from the freezer was transferred to a centrifugal tube; 100 μL of water and 400 μL of MTBE standard solution (50 ng/mL) were added into the tube and well mixed with the plasma; the obtained mixture was mixed for 10 minutes using a vortex mixer and then subject to centrifugation for 5 minutes (12000 r/min); 300 μL of the supernatant was transferred to another centrifugal tube and blown dry with nitrogen gas; the resultant substance was dissolved in 200 μL of a solution consisting of methanol and water at a ratio of 1:1, of which 20 μL was used for the LC-MS/MS measurement.
Data processing: the compound concentration was output by Analyst 1.6.1 (AB Sciex); the means, standard deviations, and variation coefficients were calculated using Microsoft Excel (no calculation needed if these parameters were directed output by Analyst 1.6.1), and pharmacokinetic parameters were determined using the NCA analysis object in Pharsight Phoenix 6.3.

N#Cc1ccc(N2N=C3c4ccc(C(=O)N5CCC(O)CC5)nc4CC[C@@H]3[C@@H]2C2CCCC2)cc1Cl [Compound I having D90 of 5 μm]
AUC(0-inf) ([1]; dog, plasma, po): 506 ng·h/mL | BA % [1]: 57.4%

N#Cc1ccc(N2N=C3c4ccc(C(=O)N5CCC(O)CC5)nc4CC[C@@H]3[C@@H]2C2CCCC2)cc1Cl [Compound I with D90 of 3.8 μm]
AUCINF [2]: 1045 ng·h/mL | BA % [2]: 66.9%

N#Cc1ccc(N2N=C3c4ccc(C(=O)N5CCC(O)CC5)nc4CC[C@@H]3[C@@H]2C2CCCC2)cc1Cl [Compound I with D90 of 21.7 μm]
AUCINF [2]: 854 ng·h/mL | BA % [2]: 54.6%

N#Cc1ccc(N2N=C3c4ccc(C(=O)N5CCC(O)CC5)nc4CC[C@@H]3[C@@H]2C2CCCC2)cc1Cl [Compound I with D90 of 41.5 μm]
AUCINF [2]: 545 ng·h/mL | BA % [2]: 34.8%

N#Cc1ccc(N2N=C3c4ccc(C(=O)N5CCC(O)CC5)nc4CC[C@@H]3[C@@H]2C2CCCC2)cc1Cl [Compound I with D90 of 72.0 μm]
AUCINF [2]: 207 ng·h/mL | BA % [2]: 13.2% | BA % ([2]; listed as Compound I with D90 of 72.2 μm): 13.2%

N#Cc1ccc(N2N=C3c4ccc(C(=O)N5CCC(O)CC5)nc4CC[C@@H]3[C@@H]2C2CCCC2)cc1Cl [Compound I with D90 of 538 nm]
AUCINF [2]: 1287 ng·h/mL | BA % [2]: 82.3%

CCOc1ncc(C)c2c1[C@H](c1ccc(C#N)cc1OC)C(C(N)=O)=C(C)N2 [Finerenone]
UACR reduced ([3]; Finerenone 7.5 mg/day): 21% | incidence of discontinuation due to onset of hyperkalemia ([3]; Finerenone 7.5 mg/day): 2.1% | UACR reduced ([3]; Finerenone 10 mg/day): 24% | incidence of discontinuation due to onset of hyperkalemia ([3]; Finerenone 10 mg/day): 0% | UACR reduced ([3]; Finerenone 15 mg/day): 33% | incidence of discontinuation due to onset of hyperkalemia ([3]; Finerenone 15 mg/day): 3.2% | UACR reduced ([3]; Finerenone 20 mg/day): 38% | incidence of discontinuation due to onset of hyperkalemia ([3]; Finerenone 20 mg/day): 1.7%

Carbomer
AUCINF [4]: 289 ng·h/mL

Hydroxypropyl cellulose
AUCINF [4]: 535 ng·h/mL

Hydroxypropyl methyl cellulose
AUCINF [4]: 483 ng·h/mL

Poloxamer 188
AUCINF [4]: 712 ng·h/mL

Polyethylene glycol 400
AUCINF [4]: 613 ng·h/mL

Polyoxyl(40) stearate
AUCINF [4]: 427 ng·h/mL

Polysorbate 80
AUCINF [4]: 654 ng·h/mL

Polyvinyl alcohol
AUCINF [4]: 603 ng·h/mL

hydroxypropyl-β-cyclodextrin
AUCINF [4]: 350 ng·h/mL
